Data reported in ChEMBL document CHEMBL1201862, “PubChem BioAssay data set” (2004).
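Protocol summary: plate cells (96-well), add compound at 5 concentrations, incubate 48 h, interpolate endpoints linearly. GI50 is the concentration that inhibits growth by half.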 Activity calls are given as the source filed them. Cut-off read from the data, not from the text of the source: active = GI50 up to about 1.1 µM and inactive = higher.

Key:
Assay in all cases: NCI tumour cell line growth inhibition, 48 h
CAKI-1 = tested on: CAKI-1
COLO 205 = tested on: COLO 205
HCC 2998 = tested on: HCC 2998
T47D = tested on: T47D
UO-31 = tested on: UO-31
TK-10 = tested on: TK-10
SR = tested on: SR
K562 = tested on: K562
IGROV-1 = tested on: IGROV-1
EKVX = tested on: EKVX
NCI/ADR-RES = tested on: NCI/ADR-RES
HCT-15 = tested on: HCT-15
NCI-H226 = tested on: NCI-H226
LOX IMVI = tested on: LOX IMVI
SF-295 = tested on: SF-295
MDA-MB-435 = tested on: MDA-MB-435
BT-549 = tested on: BT-549
SNB-75 = tested on: SNB-75
M14 = tested on: M14

SMILES	GI50 (CAKI-1)	GI50 (COLO 205)	GI50 (HCC 2998)	GI50 (T47D)	GI50 (UO-31)	GI50 (TK-10)	GI50 (SR)	GI50 (K562)	GI50 (IGROV-1)	GI50 (EKVX)	GI50 (NCI/ADR-RES)	GI50 (HCT-15)	GI50 (NCI-H226)	GI50 (LOX IMVI)	GI50 (SF-295)	GI50 (MDA-MB-435)	GI50 (BT-549)	GI50 (SNB-75)	GI50 (M14)
O=C1C=C(NCCc2ccc(O)cc2)C(=O)C=C1NCCc1ccc(O)cc1	> 100 µM (inactive)	> 100 µM (inactive)	> 100 µM (inactive)	> 100 µM (inactive)	> 100 µM (inactive)	> 100 µM (inactive)	> 100 µM (inactive)	38 µM (inactive)	> 100 µM (inactive)	> 100 µM (inactive)	> 100 µM (inactive)	> 100 µM	> 100 µM (inactive)	35.1 µM (inactive)	> 100 µM (inactive)	49.1 µM (inactive)	> 100 µM (inactive)	19.6 µM (inactive)	–
Cc1nn(C(=O)c2ccc(Cl)cc2)c2c1C(/C=C/c1ccccc1)SC(=N)N2 (centres undefined)	> 10 µM (inactive)	> 10 µM (inactive)	> 10 µM (inactive)	> 10 µM (inactive)	–	> 10 µM (inactive)	> 10 µM (inactive)	> 10 µM (inactive)	> 10 µM (inactive)	> 10 µM (inactive)	> 10 µM (inactive)	> 10 µM	> 10 µM (inactive)	> 10 µM (inactive)	> 10 µM (inactive)	> 10 µM (inactive)	> 10 µM (inactive)	> 10 µM (inactive)	> 10 µM (inactive)
Clc1ccc2c(NC3CCC(N4CCCCC4)CC3)ccnc2c1 (centres undefined)	22.2 µM (inactive)	11.7 µM (inactive)	12.2 µM (inactive)	29.4 µM (inactive)	13.9 µM (inactive)	18.4 µM (inactive)	13.2 µM (inactive)	3.3 µM (inactive)	29.2 µM (inactive)	21.2 µM (inactive)	34 µM (inactive)	27.4 µM	25.1 µM (inactive)	14.9 µM (inactive)	19.1 µM (inactive)	14.1 µM (inactive)	18.5 µM (inactive)	–	5.16 µM (inactive)
COc1ccc2c(c1)OCC1Cc3cc4c(cc3OC21)OCO4 (centres undefined)	47 µM (inactive)	35.9 µM (inactive)	44.6 µM (inactive)	32.1 µM (inactive)	38.6 µM (inactive)	28.1 µM (inactive)	40.6 µM (inactive)	33.1 µM (inactive)	43 µM (inactive)	41.1 µM (inactive)	26.2 µM (inactive)	30.4 µM	> 100 µM (inactive)	19.4 µM (inactive)	48.5 µM (inactive)	7.73 µM (inactive)	61 µM (inactive)	–	32.1 µM (inactive)
Cc1cc(OCc2nnc3n2N=C(c2cc(F)c(Cl)cc2Cl)/C(=C/c2ccc(-c4ccc(Cl)cc4)o2)S3)ccc1Cl	39.5 µM (inactive)	10.4 µM (inactive)	19 µM (inactive)	7.93 µM (inactive)	48.5 µM (inactive)	41.2 µM (inactive)	22.9 µM (inactive)	26.9 µM (inactive)	12.1 µM (inactive)	16.3 µM (inactive)	12.1 µM (inactive)	34 µM	36.3 µM (inactive)	31.6 µM (inactive)	36.6 µM (inactive)	19.3 µM (inactive)	> 50 µM (inactive)	–	> 50 µM (inactive)
CC(=O)Oc1c(C)c2c(c3ncccc13)OC(C)C2 (centres undefined)	14.6 µM (inactive)	19.4 µM (inactive)	12.8 µM (inactive)	9.14 µM (inactive)	14.8 µM (inactive)	22 µM (inactive)	3.63 µM (inactive)	10.2 µM (inactive)	6.98 µM (inactive)	17.1 µM (inactive)	15.6 µM (inactive)	12.1 µM	16.4 µM (inactive)	–	14.7 µM (inactive)	6.14 µM (inactive)	21.1 µM (inactive)	14.8 µM (inactive)	15.2 µM (inactive)
C1CCNCC1.CN(C)c1ccc(/C=C2/NC(=S)NC2=O)cc1	62.5 µM (inactive)	49.9 µM (inactive)	7.26 µM (inactive)	30.1 µM (inactive)	44.5 µM (inactive)	59 µM (inactive)	29.6 µM (inactive)	–	59.6 µM (inactive)	50.4 µM (inactive)	77.4 µM (inactive)	45.3 µM	41.1 µM (inactive)	49 µM (inactive)	40.5 µM (inactive)	27.2 µM (inactive)	49.4 µM (inactive)	49.7 µM (inactive)	68.1 µM (inactive)
COC(=O)C1=C(C)C(=O)[C@]23C(CCCC[C@H]12)C(=O)[C@H](C(=O)OC)C3C (some centres undefined)	> 100 µM (inactive)	> 100 µM (inactive)	> 100 µM (inactive)	> 100 µM (inactive)	> 100 µM (inactive)	> 100 µM (inactive)	50.9 µM (inactive)	> 100 µM (inactive)	> 100 µM (inactive)	> 100 µM (inactive)	> 100 µM (inactive)	> 100 µM	> 100 µM (inactive)	> 100 µM (inactive)	> 100 µM (inactive)	> 100 µM (inactive)	> 100 µM (inactive)	–	> 100 µM (inactive)
